Data taken from patent US12484579B2, “Agrochemical composition and methods of preparing and using the same” (priority 2018, dated 2025).

Experiment: Solubility of Mesotrione in solvents
Format: physicochemical
Description: Mesotrione has been introduced in both Rhodiasolv® Li-Tec 2v and Rhodiasolv® Polarclean. Mesotrione is not soluble in Rhodiasolv® Li-Tec 2v and is soluble in (for instance at concentration of 30 g/L) Rhodiasolv® Polarclean.

CS(=O)(=O)c1ccc(C(=O)C2C(=O)CCCC2=O)c([N+](=O)[O-])c1 [Mesotrione, 2-(4-methylsulfonyl-2-nitrobenzoyl)-cyclohexane-1,3-dione]
Solubility in Rhodiasolv® Li-Tec 2v (solvent Rhodiasolv® Li-Tec 2v): not soluble
Solubility in Rhodiasolv® Polarclean (solvent Rhodiasolv® Polarclean, for instance at concentration of 30 g/L): soluble
